Assay results from US12240818B2, “Crystalline forms of plasma kallikrein inhibitors” (Rezolute, Inc., priority 2019, dated 2025).

Key:
[1] = system: angiotensin-II-treated rodents; conditions: cited from earlier work
[2] = Compression stability of crystalline forms (XRPD, TGA, DSC); assay type: physicochemical; conditions: compression under 11×10^5 N force for about 25-28 hours; acetate
Method: X-Ray Powder Diffraction patterns were collected under ambient conditions (about 20° C.) on a PANalytical X'Pert PRO X-ray diffractometer (Malvern Panalytical, Malvern, UK) using Cu Kα radiation (45 kV, 40 mA), θ-θ goniometer, focusing mirror, divergence slit (½″), Soller slits at both incident and divergent beam (4 mm), a transmission foil sample stage (Kapton® polyimide, 12.7 μm thickness film), and a PIXcel detector. The software used for data collection was X'Pert Data Collector, version 2.2f, and the data was presented using X'Pert Data Viewer, version 1.2d. The data collection range was 2.994-35°2θ with a continuous scan speed of 0.202004° s^−1. Differential scanning calorimetry data was collected on a PerkinElmer Pyris 6000 DSC equipped with a 45 position sample holder. The instrument was verified for energy and temperature calibration using certified indium. In the examples below, a predefined amount of the sample (0.5-3.0 mg) was placed in a pin holed aluminum pan and heated at 20° C./min from 30° C. to 350° C., or varied as experimentation dictated. A purge of dry nitrogen at 20 mL/min was maintained over the sample. The instrument control, data acquisition and analysis were performed with Pyris Software v11.1.1 revision H. Thermo-Gravimetric Analysis data was collected on a PerkinElmer Pyris 1 TGA equipped with a 20 position auto-sampler. The instrument was calibrated using a certified weight and certified Alumel and Perkalloy for temperature. In the examples below, a predefined amount of the sample (˜5 mg) was loaded onto a pre-tared aluminum crucible and was heated at 20° C./min from ambient temperature to 400° C. unless otherwise stated. A nitrogen purge at 20 mL/min was maintained over the sample. The instrument control, data acquisition and analysis were performed with Pyris Software v11.1.1 revision H. The manufacturing process for solid dosage forms can require high compression and/or grinding, which may cause a change in crystal structure for some compounds. Compound 1 Form I and Form II were subjected to compression under 11×10^5N force for about 25-28 hours to assess the impact of compression upon the form stability of these crystalline forms.

[3] = Grinding stability of crystalline forms (XRPD, thermal); assay type: physicochemical
Method: X-Ray Powder Diffraction patterns were collected under ambient conditions (about 20° C.) on a PANalytical X'Pert PRO X-ray diffractometer (Malvern Panalytical, Malvern, UK) using Cu Kα radiation (45 kV, 40 mA), θ-θ goniometer, focusing mirror, divergence slit (½″), Soller slits at both incident and divergent beam (4 mm), a transmission foil sample stage (Kapton® polyimide, 12.7 μm thickness film), and a PIXcel detector. The software used for data collection was X'Pert Data Collector, version 2.2f, and the data was presented using X'Pert Data Viewer, version 1.2d. The data collection range was 2.994-35°2θ with a continuous scan speed of 0.202004° s^−1.
Differential scanning calorimetry data was collected on a PerkinElmer Pyris 6000 DSC equipped with a 45 position sample holder. The instrument was verified for energy and temperature calibration using certified indium. In the examples below, a predefined amount of the sample (0.5-3.0 mg) was placed in a pin holed aluminum pan and heated at 20° C./min from 30° C. to 350° C., or varied as experimentation dictated. A purge of dry nitrogen at 20 mL/min was maintained over the sample. The instrument control, data acquisition and analysis were performed with Pyris Software v11.1.1 revision H.
Thermo-Gravimetric Analysis data was collected on a PerkinElmer Pyris 1 TGA equipped with a 20 position auto-sampler. The instrument was calibrated using a certified weight and certified Alumel and Perkalloy for temperature. In the examples below, a predefined amount of the sample (˜5 mg) was loaded onto a pre-tared aluminum crucible and was heated at 20° C./min from ambient temperature to 400° C. unless otherwise stated. A nitrogen purge at 20 mL/min was maintained over the sample. The instrument control, data acquisition and analysis were performed with Pyris Software v11.1.1 revision H.
Samples of both Form I and Form II (about 100 mg each) were subjected to grinding operations to assess the impact on solid form and observed microscopy. It was of interest to note whether amorphous content was generated, and to review the impact upon water content for the batches, especially with regards to Form II hydrate.

[4] = Aqueous solubility of solid forms; assay type: physicochemical; conditions: for aqueous solubility: at 25° C., acetate
[5] = system: animal model of ischemic stroke; conditions: cited from earlier work
[6] = system: patients with hereditary angioedema; conditions: cited from earlier work
[7] = system: model of hemorrhagic stroke; conditions: cited from earlier work
[8] = system: rat model of ischemic stroke; conditions: cited from earlier work
[9] = system: mouse model of middle cerebral artery occlusion; conditions: cited from earlier work

Q: Which retinal vascular permeability [1] does the source give for Hoe-140 [reference compound] here?
A: The retinal vascular permeability was “reduce retinal vascular permeability”.

Q: For `CC(=O)O.N=C(N)c1ccc(CNC(=O)c2cnn(Cc3ccccc3)c2)cc1` [Form II, 1-benzyl-N-(4-carbamimidoylbenzyl)-1H-pyrazole-4-carboxamide acetate], which “DSC thermograph change following compression” value [2] is on record?
A: Its value is “reduction in the intensity, but increase of the temperature of the main melt endotherm”.

Q: And the “TGA thermograph change following compression” value [2]?
A: The value was “slight increase in the water content”.

Q: What about the “XRPD pattern change following compression” value [2] of the same molecule?
A: Its value is “significant change in the diffraction pattern to a pattern of reduced crystallinity”.

Q: And the “change of solid form post-grinding (thermal, XRPD)” value ([3]; about 100 mg ground)?
A: Its value is “minor alteration in reflection resolution and intensity”.

Q: And the water content post-grinding ([3]; after grinding)?
A: The water content post-grinding was 3.93 wt %.

Q: What about the “water content at point of production” value ([3]; before grinding) of the same molecule?
A: Its value is 2.76 wt %.

Q: What about the aqueous solubility [4] of the same molecule?
A: The aqueous solubility was “about 5.5 mg/mL”.

Q: What does the source list for Ecallantide?
A: brain edema, infarct volume and neurological deficits [5]: reduced brain edema, infarct volume and neurological deficits; effect on hereditary angioedema [6]: alleviates edema

Q: Which “expansion of intracerebral hemorrhage” value [7] does the source give for `CC(=O)O.N=C(N)c1ccc(CNC(=O)c2cnn(Cc3ccccc3)c2)cc1` [Compound 1, 1-benzyl-N-(4-carbamimidoylbenzyl)-1H-pyrazole-4-carboxamide acetate salt] here?
A: The value was “reduce”.

Q: What about the “infarction volume and cerebrovascular edema” value [8] of the same molecule?
A: Its value is “reduce infarction volume and cerebrovascular edema”.

Q: What about the retinal vascular permeability [1] of the same molecule?
A: Its retinal vascular permeability is “reduce retinal vascular permeability”.

Q: For `CC(=O)O.N=C(N)c1ccc(CNC(=O)c2cnn(Cc3ccccc3)c2)cc1` [Form I, 1-benzyl-N-(4-carbamimidoylbenzyl)-1H-pyrazole-4-carboxamide acetate], which “DSC thermograph change following compression” value [2] is on record?
A: Its value is “reduction in the intensity and temperature of the melt endotherm”.

Q: And the “TGA thermograph change following compression” value [2]?
A: Its value is “no change in the TGA thermograph”.

Q: What about the “XRPD pattern change following compression” value [2] of the same molecule?
A: Its value is “subtle reduction in diffraction resolution”.

Q: And the “stability under manual stress” value ([3]; compression and grinding, summary)?
A: The value was “superior stability to hydrated Form II”.

Q: And the solubility ([4]; water, 25 °C)?
A: Its solubility is ~8300 µg/mL.

Q: Which “effect on hereditary angioedema” value [6] does the source give for `NC(N)=NCCC[C@@H](N)C(=O)N[C@@H](CCCN=C(N)N)C(=O)N1CCC[C@H]1C(=O)N1C[C@H](O)C[C@H]1C(=O)NCC(=O)N[C@@H](Cc1cccs1)C(=O)N[C@@H](CO)C(=O)N1Cc2ccccc2C[C@@H]1C(=O)N1[C@H](C(=O)N[C@@H](CCCN=C(N)N)C(=O)O)C[C@@H]2CCCC[C@@H]21` [icatibant] here?
A: The value was “effective”.

Q: With `CC(=O)O.N=C(N)c1ccc(CNC(=O)c2cnn(Cc3ccccc3)c2)cc1` [Form V, 1-benzyl-N-(4-carbamimidoylbenzyl)-1H-pyrazole-4-carboxamide acetate] as the molecule, how does the aqueous solubility [4] read?
A: The aqueous solubility was “about 7.1 mg/mL”.

Q: For `CC(=O)O.N=C(N)c1ccc(CNC(=O)c2cnn(Cc3ccccc3)c2)cc1` [Form III, 1-benzyl-N-(4-carbamimidoylbenzyl)-1H-pyrazole-4-carboxamide acetate], which aqueous solubility [4] is on record?
A: The aqueous solubility was “about 7.2 mg/mL”.

B1: C1-INH: the major endogenous inhibitor of PK (protein, UniProt P05155 23-500, looked up)
Plasma protease C1 inhibitor: NPNATSSSSQDPESLQDRGEGKVATTVISKMLFVEPILEVSSLPTTNSTTNSATKITANTTDEPTTQPTTEPTTQPTIQPTQPTTQLPTDSPTQPTTGSFCPGPVTLCSDLESHSTEAVLGDALVDFSLKLYHAFSAMKKVETNMAFSPFSIASLLTQVLLGAGENTKTNLESILSYPKDFTCVHQALKGFTTKGVTSVSQIFHSPDLAIRDTFVNASRTLYSSSPRVLSNNSDANLELINTWVAKNTNNKISRLLDSLPSDTRLVLLNAIYLSAKWKTTFDPKKTRMEPFHFKNSVIKVPMMNSKKYPVAHFIDQTLKAKVGQLQLSHNLSLVILVPQNLKHRLEDMEQALSPSVFKAIMEKLEMSKFQPTLLTLPRIKVTTSQDMLSIMEKLEFFDFSYDLNLCGLTEDPDLQVSAMQHQTVLELTETGVEAAAASAISVARTLLVFEVQQPFLFVLWDQQHKFPVFMGRVYDPRA
Q: For B1, which infarct size [9] is on record?
A: Its infarct size is “reduced infarct size”.
